Measured values: patent publication US6342602B1, “Aryl or heteroaryl amides of tetrahydronaphthalene, chroman, thichroman and 1,2,3,4-tetrahydroquinolinecarboxlic acids, having an electron withdrawing substituent in the aromatic or heteroaromatic moiety, having retinoid-like biological activity” (Allergan Sales, Inc., priority 1995, dated 2002)
pKd: −log10 of the molar value. Like-named read-outs stand apart in the source and are kept apart here.

Columns and labels:
Assay in all cases: Ligand binding assay
[1] = target: T1, RARΓ (Homo sapiens, UniProt P13631)
T1 construct: made in house; used as extract protein
T1 sequence (P13631 1-454): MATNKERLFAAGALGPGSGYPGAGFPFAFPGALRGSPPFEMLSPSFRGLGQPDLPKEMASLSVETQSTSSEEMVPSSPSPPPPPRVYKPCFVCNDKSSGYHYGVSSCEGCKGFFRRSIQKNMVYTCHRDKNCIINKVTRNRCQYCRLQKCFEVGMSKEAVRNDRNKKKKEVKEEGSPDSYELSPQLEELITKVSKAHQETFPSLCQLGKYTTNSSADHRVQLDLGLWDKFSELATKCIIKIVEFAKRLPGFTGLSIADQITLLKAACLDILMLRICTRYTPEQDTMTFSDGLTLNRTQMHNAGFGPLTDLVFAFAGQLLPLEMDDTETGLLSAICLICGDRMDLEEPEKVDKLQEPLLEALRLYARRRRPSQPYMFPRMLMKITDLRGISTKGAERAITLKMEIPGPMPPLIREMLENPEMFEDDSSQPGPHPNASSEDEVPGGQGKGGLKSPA
Experimental: (§1) A holoreceptor transactivation assay and a ligand binding assay which measure the ability of the compounds of the invention to bind to the several retinoid receptor subtypes, respectively, are described in published PCT Application No. WO WO93/11755 (particularly on pages 30-33 and 37-41) published on Jun. 24, 1993, the specification of which is also incorporated herein by reference. A description of the ligand binding assay is also provided below.
(§2) All binding assays were performed in a similar fashion. All six receptor types were derived from the expressed receptor type (RAR α, β, τ and RXR α, β, τ) expressed in Baculovirus. Stock solutions of all compounds were prepared as 10 mM ethanol solutions and serial dilutions carried out into 1:1 DMSO; ethanol. Assay buffers consisted of the following for all six receptor assays: 8% glycerol, 120 mM KCl, 8 mM Tris, 5 mM CHAPS 4 mM DTT and 0.24 mM PMSF, pH-7.4@room temperature.
(§3) All receptor biding assays were performed in the same manner. The final assay volume was 250 μl and contained from […] of extract protein depending on receptor being assayed along with 5 nM of [^3H) alltrans retinoic acid or 10 nM [^3H) 9-cis retinoic acid and varying concentrations of competing ligand at concentrations that ranged from 0-10^−5 M. The assays were formatted for a 96 well minitube system. Incubations were carried out at 4° C. until equilibrium was achieved. Non-specific binding was defined as that binding remaining in the presence of 1000 nM of the appropriate unlabeled retinoic acid isomer. At the end of the incubation period, 50 μl of 6.25% hydroxyapitite was added in the appropriate wash buffer. The wash buffer consisted of 100 mM KCl, 10 mM Tris and either 5 mM CHAPS (RXR α, β, τ) or 0.5% Triton X-100 (RAR α, β, τ). The mixture was vortexed and incubated for 10 minutes at 4° C., centrifuged and the supernatant removed. The hydroxyapitite was washed three more times with the appropriate wash buffer. The receptor-ligand complex was adsorbed by the hydroxyapitite. The amount of receptor-ligand complex was determined by liquid scintillation counting of hydroxyapitite pellet.
(§4) After correcting for non-specific binding, IC50 values were determined. […] The IC50 value was determined graphically from a loglogit plot of the data. The Kd values were determined by application of the ChengPrussof equation to the IC50 values, the labeled ligand concentration and the Kd of the labeled ligand.
(§5) The results of ligand binding assay are expressed in Kd numbers. (See Cheng et al. Biochemical Pharmacology Vol. 22 pp 3099-3108, expressly incorporated herein by reference.)

[2] = target: T2, RARα (Homo sapiens, UniProt P10276)
T2 construct: made in house; used as extract protein
T2 sequence (P10276 1-462): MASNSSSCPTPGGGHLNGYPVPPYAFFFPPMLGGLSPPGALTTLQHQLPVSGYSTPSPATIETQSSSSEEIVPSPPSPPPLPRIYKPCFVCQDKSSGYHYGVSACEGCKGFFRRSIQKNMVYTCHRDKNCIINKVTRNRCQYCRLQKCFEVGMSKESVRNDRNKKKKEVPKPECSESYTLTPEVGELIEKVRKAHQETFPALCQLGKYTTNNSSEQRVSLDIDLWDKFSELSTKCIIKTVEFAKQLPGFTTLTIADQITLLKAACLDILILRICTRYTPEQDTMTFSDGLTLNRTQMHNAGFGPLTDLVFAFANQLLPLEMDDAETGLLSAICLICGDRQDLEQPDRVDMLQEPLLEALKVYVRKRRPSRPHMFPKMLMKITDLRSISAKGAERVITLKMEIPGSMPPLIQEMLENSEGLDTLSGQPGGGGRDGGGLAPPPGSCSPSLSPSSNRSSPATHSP
Experimental: as §1, §2, §3, §4, §5

[3] = target: T3, RARβ (Homo sapiens, UniProt P10826); settings: receptor expressed in Baculovirus; competition with [3H] retinoic acid; Cheng-Prusoff from IC50
T3 construct: made in house; used as extract protein
T3 sequence (P10826 1-455): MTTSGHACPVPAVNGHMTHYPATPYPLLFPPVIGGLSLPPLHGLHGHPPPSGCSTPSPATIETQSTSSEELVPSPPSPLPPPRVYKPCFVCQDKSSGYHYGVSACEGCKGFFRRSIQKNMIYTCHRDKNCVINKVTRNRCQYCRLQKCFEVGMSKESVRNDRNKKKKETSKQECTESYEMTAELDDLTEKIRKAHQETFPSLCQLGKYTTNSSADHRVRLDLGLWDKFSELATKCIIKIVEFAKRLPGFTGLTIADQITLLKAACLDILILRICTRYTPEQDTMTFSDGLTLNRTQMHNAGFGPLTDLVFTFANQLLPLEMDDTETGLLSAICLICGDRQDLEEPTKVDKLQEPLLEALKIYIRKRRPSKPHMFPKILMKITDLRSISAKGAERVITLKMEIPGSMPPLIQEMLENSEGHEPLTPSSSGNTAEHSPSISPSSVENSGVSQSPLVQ
Experimental: as §1, §2, §3, §4, §5

[4] = target: T4, RXRα (Homo sapiens, UniProt P19793); settings: receptor expressed in Baculovirus; competition with [3H] retinoic acid; Cheng-Prusoff from IC50
T4 construct: made in house; used as extract protein
T4 sequence (P19793 1-462): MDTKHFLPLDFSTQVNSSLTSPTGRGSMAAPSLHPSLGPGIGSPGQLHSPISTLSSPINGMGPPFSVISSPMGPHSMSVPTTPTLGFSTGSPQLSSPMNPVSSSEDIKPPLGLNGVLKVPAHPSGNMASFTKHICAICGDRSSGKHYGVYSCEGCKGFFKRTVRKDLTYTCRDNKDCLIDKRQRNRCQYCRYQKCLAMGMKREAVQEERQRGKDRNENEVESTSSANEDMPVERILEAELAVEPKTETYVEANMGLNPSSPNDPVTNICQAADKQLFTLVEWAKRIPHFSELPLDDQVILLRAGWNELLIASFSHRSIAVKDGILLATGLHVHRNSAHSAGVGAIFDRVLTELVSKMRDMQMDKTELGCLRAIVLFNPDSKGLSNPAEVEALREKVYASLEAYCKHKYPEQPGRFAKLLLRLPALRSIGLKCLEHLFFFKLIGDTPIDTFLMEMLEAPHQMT
Experimental: as §1, §2, §3, §4, §5

[5] = receptor expressed in Baculovirus, competition with [3H] retinoic acid, Cheng-Prusoff from IC50, read-out: Kd RARΓ
[6] = receptor expressed in Baculovirus, competition with [3H] retinoic acid, Cheng-Prusoff from IC50, read-out: Kd RARα

Compound | pKd [1, 5] | pKd [2, 6] | pKd [3] | pKd [4] | pKd [1] | pKd [2]
CC1(C)CCC(C)(C)c2cc(C(=O)Nc3ccc(C(=O)O)c(F)c3)ccc21 [Compound 2] | < 6.00 | 8.72 | 6.32 | < 6.00 | – | –
CC1(C)CCC(C)(C)c2cc(C(=O)Nc3ccc(C(=O)O)cc3)c(F)cc21 [Compound 4] | 7.02 | 7.64 | 7.64 | < 6.00 | – | –
CC1(C)CCC(C)(C)c2c(Br)cc(C(=O)Nc3ccc(C(=O)O)c(F)c3)cc21 [Compound 6] | < 6.00 | 8.89 | < 6.00 | < 6.00 | – | –
CC1(C)CCC(C)(C)c2cc(C(=O)Nc3ccc(C(=O)O)c(F)c3)c(O)cc21 [Compound 8] | < 6.00 | 8.52 | < 6.00 | < 6.00 | – | –
CC1(C)CC(C)(C)c2cc(C(=O)Nc3ccc(C(=O)O)c(F)c3)cc(Br)c2O1 [Compound 12] | < 6.00 | 7.62 | < 6.00 | < 6.00 | – | –
CC1(C)CC(C)(C)c2cc(C(=O)Nc3ccc(C(=O)O)c(F)c3)cc(C(F)(F)F)c2O1 [Compound 14] | < 6.00 | 7.85 | < 6.00 | < 6.00 | – | –
CC1(C)CC(C)(C)c2cc(C(=O)Nc3ccc(C(=O)O)c(F)c3)cc(N=[N+]=[N-])c2O1 [Compound 16, 2-Fluoro-4-[(21′,2′,4′,4′-tetramethyl-8′-azidochroman-6′-yl)carbamoyl]benzoic Acid] | < 6.00 | 7.28 | < 6.00 | < 6.00 | – | –
CC1(C)CC(C)(C)c2cc(C(=O)Nc3cc(F)c(C(=O)O)c(F)c3)cc(C(F)(F)F)c2O1 [Compound 18, 2,6-Difluoro-4-[(2′,2′,4′,4′-tetramethyl-8′-trifluoromethylchroman-6′-yl)carbamoyl]benzoic Acid] | < 6.00 | 7.29 | < 6.00 | < 6.00 | – | –
CC1(C)CC(C)(C)c2cc(C(=O)Nc3ccc(C(=O)O)c(F)c3)cc(I)c2O1 [Compound 20] | < 6.00 | 7.80 | < 6.00 | < 6.00 | – | –
Cc1cc(C(=O)Nc2ccc(C(=O)O)c(F)c2)cc2c1OC(C)(C)CC2(C)C [Compound 22] | < 6.00 | 7.24 | < 6.00 | < 6.00 | – | –
CC1(C)CCC(C)(C)c2cc(C(=S)Nc3ccc(C(=O)O)cc3)ccc21 [Compound 26] | < 6.00 | 7.82 | < 6.00 | < 6.00 | – | –
CC1(C)CC(C)(C)c2cc(C(=O)Nc3ccc(C(=O)O)c(F)c3)ccc2O1 [Compound 32] | < 6.00 | 6.79 | < 6.00 | < 6.00 | – | –
CC1(C)CCC(C)(C)c2c1cc(C(=O)Nc1cc(F)c(C(=O)O)c(F)c1)c(O)c2Br [Compound 36] | – | – | < 6.00 | < 6.00 | < 6.00 | 8.64
CC1(C)CCC(C)(C)c2cc(C(=O)Nc3cc(F)c(C(=O)O)c(F)c3)ccc21 [Compound 38] | < 6.00 | 8.05 | < 6.00 | < 6.00 | – | –
